What was measured:
[1] = system: SFN / TAZ phosphopeptide substrate; assay: Fluorescence polarization, 14-3-3 SFN with TAZ phosphopeptide substrate; assay type: binding; conditions: SFN with C38 and C96 mutated to serines
[2] = system: Hippo pathway transcription factor luciferase reporter in MCF7 breast cancer cells; assay: Hippo pathway transcription factor luciferase reporter activity; assay type: cell-based
Description: (§1) […]. […] […]. […] […].

[3] = system: 14-3-3 SFN protein / ERα phosphopeptide substrate; assay: Fluorescence polarization, 14-3-3 SFN with ERα phosphopeptide substrate; assay type: binding; conditions: SFN with C38 and C96 mutated to serines
Protocol: We performed a fluorescence polarization screen with our cysteine-reactive covalent ligand libraries to identify 14-3-3 covalent molecular glues that enhance interactions of SFN with phosphopeptide 14-3-3 interacting sequences ERα. This screen was performed with recombinant pure 14-3-3 SFN protein and a 5-FAM- or rhodamine-conjugated ERα phosphopeptide substrate looking for cysteine-reactive covalent ligands that would stabilize 14-3-3 interactions with the phosphopeptide substrate.

[4] = system: ERα transcription factor luciferase reporter in T47D breast cancer cells; assay: ERα luciferase reporter activity; assay type: cell-based
Description: as §1

[5] = SFN knockdown, breast cancer cells

With `C=CC(=O)N1CCC2(CCN(Cc3ccccc3)C2)C1` (stereo not drawn) [EN171] the “EN171-mediated stabilization of 14-3-3 interactions with TAZ” value [1] was “significantly attenuated”, the “Inhibition of Hippo pathway transcription factor luciferase reporter activity” value ([2]; MCF7 breast cancer cells) was “dose-responsive inhibition” and the “EN171-mediated inhibition of Hippo pathway transcriptional activity” value [2, 5] was “significantly attenuated”. The “EN171-mediated stabilization of 14-3-3 interactions with ERα” value [3] was “significantly attenuated”, the “EN171-mediated inhibition of ERα transcriptional activity” value [4, 5] was “significantly attenuated” and the “Inhibition of ERα luciferase reporter activity” value ([4]; T47D breast cancer cells) was “dose-responsive inhibition”.
